Assay results taken from PubChem BioAssay (NCI).
Several values for one entry are separate records, joined by “and”; a condition that tells them apart may be missing. Identical values can stand only once.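 Compound exposure: 48 hours, 5 concentrations, 96-well plates. The concentration for 50% growth inhibition is given as GI50. The concentration for full growth arrest is given as TGI.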

What was measured:
Experiment in all cases: NCI-60 cell line screen, 48 h
SR leukemia = test system: SR leukemia
NCI-H23 lung = test system: NCI-H23 lung
MDA-MB-435 = test system: MDA-MB-435
SNB-75 CNS = test system: SNB-75 CNS
A498 renal = test system: A498 renal
SK-OV-3 ovarian = test system: SK-OV-3 ovarian
SW-620 colon = test system: SW-620 colon
LOX IMVI melanoma = test system: LOX IMVI melanoma
M14 melanoma = test system: M14 melanoma
786-0 renal = test system: 786-0 renal

| SMILES | GI50 (SR leukemia) | TGI (SR leukemia) | GI50 (NCI-H23 lung) | TGI (NCI-H23 lung) | GI50 (MDA-MB-435) | TGI (MDA-MB-435) | GI50 (SNB-75 CNS) | TGI (SNB-75 CNS) [µM] | GI50 (A498 renal) | TGI (A498 renal) | GI50 (SK-OV-3 ovarian) [µM] | TGI (SK-OV-3 ovarian) [µM] | GI50 (SW-620 colon) | TGI (SW-620 colon) [µM] | GI50 (LOX IMVI melanoma) | TGI (LOX IMVI melanoma) | GI50 (M14 melanoma) | TGI (M14 melanoma) [µM] | GI50 (786-0 renal) | TGI (786-0 renal) [µM] |
| --- | --- | --- | --- | --- | --- | --- | --- | --- | --- | --- | --- | --- | --- | --- | --- | --- | --- | --- | --- | --- |
| CC(C)(C)c1cc(O)c(O)c(C(C)(C)C)c1 | 2.38 µM | 6.64 µM | 3.64 µM | 14.2 µM | 3.3 µM | 14.1 µM | 4.86 µM | 19 | 6.19 µM | 19.8 µM | 10.3 | 22.6 | 1.8 µM | 3.23 | 3.05 µM | 12.9 µM | 3.91 µM | 13.8 | 4.6 µM | 16.2 |
| COc1ccc(-c2nn(-c3cccc(Cl)c3)cc2C2CC(c3ccccc3)=NN2C(C)=O)cc1 (stereo not given) | 8.98 µM | > 100 µM | 10.1 µM | > 100 µM | > 100 µM | > 100 µM | 1.76 µM | 5.99 | 3.33 µM | 50.4 µM | 6.85 | 43.2 | > 100 µM | > 100 | 11 µM | > 100 µM | 7.68 µM | > 100 | 6.87 µM | 97.2 |
| CSc1nc(SC)c2c(CN=[N+]=[N-])c(Br)n(Cc3ccccc3)c2n1 |  | > 100 µM |  | > 100 µM |  | > 100 µM |  | > 100 |  | > 100 µM |  | > 100 |  | > 100 |  | > 100 µM |  | > 100 |  | > 100 |
| CC(=O)Nc1cccc(-n2c(=O)n(C3CC3)c(=O)c3c(Nc4ccc(I)cc4F)n(C)c(=O)c(C)c32)c1 | 3.65 µM and > 10 µM | 45.6 µM and > 10 µM | < 0.01 µM and 0.0212 µM | 19.3 µM and > 10 µM | < 0.01 µM and 0.00313 µM | 25 µM and > 10 µM | 3.2 µM and > 2.79 µM | > 55.2 | < 0.01 µM and 0.00596 µM | < 0.0306 µM and 0.0672 µM | 8.58 | > 85.4 | < 0.01 µM and 0.00622 µM | > 48.8 | < 0.0122 µM and 0.0262 µM | 5.46 µM and > 10 µM | < 0.01 µM and 0.00173 µM | < 0.01 | 4.02 µM and > 7.71 µM | > 57.7 |
| COc1cccc(/C=C/C(=O)c2cc3c(N)c(C(=O)Nc4ccccc4C)sc3nc2C)c1 | 1.09 µM | 4.2 µM | 1.76 µM | 8.93 µM | 1.07 µM | 2.77 µM | 1.05 µM | 3.15 | 0.989 µM | 4.4 µM | 5.03 | 38.8 | 1.01 µM | 2.32 | 0.875 µM | 1.59 µM | 1.59 µM | 6.42 | 0.912 µM | 1.93 |
| COc1cc2c3c(cccc3c1)C(=O)N(CCN1CCCC1)C2=O | 1.47 µM | > 100 µM | 2.49 µM | 8.21 µM | 2.81 µM | 8.25 µM | 1.63 µM | 3.65 | 1.96 µM | 3.69 µM | 3.27 | 14.5 | 2.04 µM | 15.7 | 1.68 µM | 4.42 µM | 2.38 µM | 5.66 | 2.92 µM | > 100 |
